Reference: doi:10.64898/2025.12.04.692314v1 (biorxiv, 2025)

Assays:
Assay type in all cases: binding
PhACO1 [1] = target: PhACO1 (Petunia x hybrida, UniProt Q08506, R244A); assay: isothermal titration calorimetry
PhACO1 [2] = target: PhACO1 (Petunia x hybrida, UniProt Q08506); assay: isothermal titration calorimetry
AtACO2 = AtACO2 (Arabidopsis thaliana, UniProt Q41931); assay: intrinsic tryptophan fluorescence quenching; details: 5 µM enzyme, Ni(II), 50 mM Tris pH 7.5, 28 °C; negative control (non-binder)
AtACO2, sequence (Q41931 whole entry): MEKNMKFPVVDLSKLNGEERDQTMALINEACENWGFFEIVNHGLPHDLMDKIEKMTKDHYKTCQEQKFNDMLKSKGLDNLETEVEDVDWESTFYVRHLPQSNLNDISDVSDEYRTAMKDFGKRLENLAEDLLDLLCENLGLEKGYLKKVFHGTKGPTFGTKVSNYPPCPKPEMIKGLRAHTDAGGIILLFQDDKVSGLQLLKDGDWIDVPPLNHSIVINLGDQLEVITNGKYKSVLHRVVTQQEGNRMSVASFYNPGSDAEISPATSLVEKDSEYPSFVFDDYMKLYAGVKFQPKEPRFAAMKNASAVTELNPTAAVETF

PhACO1 (Petunia x hybrida, UniProt Q08506, R244A), sequence (Q08506 whole entry R244A): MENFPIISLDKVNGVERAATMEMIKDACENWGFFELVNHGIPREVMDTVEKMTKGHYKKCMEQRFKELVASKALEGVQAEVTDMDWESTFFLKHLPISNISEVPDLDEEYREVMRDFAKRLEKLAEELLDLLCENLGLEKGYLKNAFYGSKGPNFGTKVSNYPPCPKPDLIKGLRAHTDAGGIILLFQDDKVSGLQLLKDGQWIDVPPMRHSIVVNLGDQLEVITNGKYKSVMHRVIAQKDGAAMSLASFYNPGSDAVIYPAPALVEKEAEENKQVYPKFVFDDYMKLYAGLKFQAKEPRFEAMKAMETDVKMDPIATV
PhACO1 (Petunia x hybrida, UniProt Q08506), sequence (Q08506 whole entry): as the sequence (Q08506 whole entry R244A) above, with A244R counted along it

| SMILES | Kd (PhACO1 [1]) | Kd (PhACO1 [2]) | intrinsic tryptophan fluorescence quenching (AtACO2) |
| --- | --- | --- | --- |
| O=C(O)c1cnccn1 [POA] | 104 µM | 69.5 µM | – |
| O=C(O)c1ccccc1 [benzoic acid] | – | – | benzoic acid did not quench fluorescence |
